Key:
[1] = target: T1, RAC-alpha serine/threonine-protein kinase [139-480,S378A,S381A,T450D,S473D] (Homo sapiens, UniProt P31749, S378A/S381A/S473D/T450D); assay: Akt Kinase Assay
T1 construct: 139-480
Description: (§1) The kinase assay uses His-Akt1 and a biotinylated peptide as substrate. The biotinylated peptides were immobilized on streptavidin-coated FLASH plates. After reaction, the 33P-phosphopeptide captured on the FLASH plates was measured with a TopCount Packard Instruments […] (Packard Instruments, Boston, MA).

[2] = target: T2, Protein kinase C zeta type (Homo sapiens, UniProt Q05513); assay: PKA/PKC Kinase Assay; details: pH 7.5; 22 °C
T2 sequence (Q05513 whole entry): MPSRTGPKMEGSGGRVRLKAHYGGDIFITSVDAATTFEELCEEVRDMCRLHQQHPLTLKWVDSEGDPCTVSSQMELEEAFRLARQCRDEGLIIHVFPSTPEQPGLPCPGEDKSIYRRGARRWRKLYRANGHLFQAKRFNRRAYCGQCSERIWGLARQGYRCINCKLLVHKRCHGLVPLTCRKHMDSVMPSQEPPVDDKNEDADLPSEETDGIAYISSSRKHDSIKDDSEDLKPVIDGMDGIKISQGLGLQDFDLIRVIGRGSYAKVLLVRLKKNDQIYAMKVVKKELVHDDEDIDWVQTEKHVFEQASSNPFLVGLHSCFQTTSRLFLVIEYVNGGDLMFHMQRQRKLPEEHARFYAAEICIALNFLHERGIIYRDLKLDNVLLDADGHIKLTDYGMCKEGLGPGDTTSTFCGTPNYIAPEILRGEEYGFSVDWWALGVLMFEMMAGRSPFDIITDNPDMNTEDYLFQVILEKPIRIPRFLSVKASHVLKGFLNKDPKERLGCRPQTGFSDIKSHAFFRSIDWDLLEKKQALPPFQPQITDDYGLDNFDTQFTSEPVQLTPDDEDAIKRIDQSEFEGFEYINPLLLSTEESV
Description: as §1, with “purified recombinant enzyme” for “His-Akt1”, “MA). IC50s were calculated using the sigmoidal curve fit with the Assay Explorer software (MDL, Los Angeles, CA).” for “MA).”

T1 sequence (P31749 139-480 S378A/S381A/T450D/S473D): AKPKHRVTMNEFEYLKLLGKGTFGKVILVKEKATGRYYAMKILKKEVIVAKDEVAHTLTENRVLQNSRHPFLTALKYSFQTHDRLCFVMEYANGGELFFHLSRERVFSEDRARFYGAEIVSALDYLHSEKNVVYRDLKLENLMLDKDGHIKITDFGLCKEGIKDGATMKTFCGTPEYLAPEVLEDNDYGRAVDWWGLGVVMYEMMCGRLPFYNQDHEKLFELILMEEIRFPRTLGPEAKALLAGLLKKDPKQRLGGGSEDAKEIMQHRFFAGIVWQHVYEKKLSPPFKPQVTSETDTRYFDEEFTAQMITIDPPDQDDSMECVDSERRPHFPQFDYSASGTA

| Structure (SMILES) | IC50 ([1]; pH 7.5, 22 °C) | IC50 [1] | also measured |
| --- | --- | --- | --- |
| N#Cc1ncc(OC[C@@H](N)Cc2c[nH]c3ccccc23)cc1-c1ccc2cnccc2c1 [5-[(2S)-2-amino-3-(1H-indol-3-yl)propoxy]-3-(isoquinolin-6-yl)pyridine-2-carbonitrile] | 4.6 nM |  |  |
| N[C@H](COc1cnc(C#Cc2ccccc2)c(-c2ccc3cnccc3c2)c1)Cc1c[nH]c2ccccc12 [6-{5-[(2S)-2-amino-3-(1H-indol-3-yl)propoxy]-2-(2-phenylethynyl)pyridin-3-yl}isoquinoline] | 1240 nM |  |  |
| N[C@H](COc1cnc(-c2ccco2)c(-c2ccc3cnccc3c2)c1)Cc1c[nH]c2ccccc12 [6-{5-[(2S)-2-amino-3-(1H-indol-3-yl)propoxy]-2-(furan-2-yl)pyridin-3-yl}isoquinoline] | 1.5 nM |  |  |
| N[C@H](COc1cnc(Cl)c(-c2ccc3cnccc3c2)c1)Cc1c[nH]c2ccccc12 [6-{5-[(2S)-2-amino-3-(1H-indol-3-yl)propoxy]-2-chloropyridin-3-yl}isoquinoline] | 1.8 nM |  | IC50 [2]: > 5000 nM |
| C=Cc1ncc(OC[C@@H](N)Cc2c[nH]c3ccccc23)cc1-c1ccc2cnccc2c1 [6-{5-[(2S)-2-amino-3-(1H-indol-3-yl)propoxy]-2-ethenylpyridin-3-yl}isoquinoline] | 2 nM |  |  |
| C#Cc1ncc(OC[C@@H](N)Cc2c[nH]c3ccccc23)cc1-c1ccc2cnccc2c1 [6-{5-[(2S)-2-amino-3-(1H-indol-3-yl)propoxy]-2-ethynylpyridin-3-yl}isoquinoline] | 0.8 nM |  |  |
| Cc1c(OC[C@@H](N)Cc2c[nH]c3ccccc23)cncc1-c1ccc2cnccc2c1 [6-{5-[(2S)-2-amino-3-(1H-indol-3-yl)propoxy]-4-methylpyridin-3-yl}isoquinoline] | 84 nM |  |  |
| N[C@H](COc1cc(-c2ccc3cnccc3c2)cnc1Cl)Cc1c[nH]c2ccccc12 [6-{5-[(2S)-2-amino-3-(1H-indol-3-yl)propoxy]-6-chloropyridin-3-yl}isoquinoline] | 12 nM |  |  |
| N[C@H](COc1cncc(-c2ccc3c(Cl)nccc3c2)c1)Cc1c[nH]c2ccccc12 [6-{5-[(2S)-2-amino-3-(1H-indol-3-yl)propoxy]pyridin-3-yl}-1-chloroisoquinoline] | 778 nM |  |  |
| N[C@H](COc1cncc(-c2ccc3c(F)nccc3c2)c1)Cc1c[nH]c2ccccc12 [6-{5-[(2S)-2-amino-3-(1H-indol-3-yl)propoxy]pyridin-3-yl}-1-fluoroisoquinoline] | 227 nM |  |  |
| COc1nccc2cc(-c3cncc(OC[C@@H](N)Cc4c[nH]c5ccccc45)c3)ccc12 [6-{5-[(2S)-2-amino-3-(1H-indol-3-yl)propoxy]pyridin-3-yl}-1-methoxyisoquinoline] | 39500 nM |  |  |
| N[C@H](COc1cncc(-c2ccc3cnc(C#Cc4ccccc4)cc3c2)c1)Cc1c[nH]c2ccccc12 [6-{5-[(2S)-2-amino-3-(1H-indol-3-yl)propoxy]pyridin-3-yl}-3-(2-phenylethynyl)isoquinoline] |  | 56 nM |  |
| N[C@H](COc1cncc(-c2ccc3cnc(-c4ccco4)cc3c2)c1)Cc1c[nH]c2ccccc12 [6-{5-[(2S)-2-amino-3-(1H-indol-3-yl)propoxy]pyridin-3-yl}-3-(furan-2-yl)isoquinoline] |  | 57 nM |  |
| CC#Cc1cc2cc(-c3cncc(OC[C@@H](N)Cc4c[nH]c5ccccc45)c3)ccc2cn1 [6-{5-[(2S)-2-amino-3-(1H-indol-3-yl)propoxy]pyridin-3-yl}-3-(prop-1-yn-1-yl)isoquinoline] |  | 180 nM |  |
| N[C@H](COc1cncc(-c2ccc3cnc(-c4ccncc4)cc3c2)c1)Cc1c[nH]c2ccccc12 [6-{5-[(2S)-2-amino-3-(1H-indol-3-yl)propoxy]pyridin-3-yl}-3-(pyridin-4-yl)isoquinoline] |  | 122 nM |  |
| N[C@H](COc1cncc(-c2ccc3cnc(Cl)cc3c2)c1)Cc1c[nH]c2ccccc12 [6-{5-[(2S)-2-amino-3-(1H-indol-3-yl)propoxy]pyridin-3-yl}-3-chloroisoquinoline] |  | 407 nM |  |
| C=Cc1cc2cc(-c3cncc(OC[C@@H](N)Cc4c[nH]c5ccccc45)c3)ccc2cn1 [6-{5-[(2S)-2-amino-3-(1H-indol-3-yl)propoxy]pyridin-3-yl}-3-ethenylisoquinoline] |  | 22 nM |  |
| CCc1cc2cc(-c3cncc(OC[C@@H](N)Cc4c[nH]c5ccccc45)c3)ccc2cn1 [6-{5-[(2S)-2-amino-3-(1H-indol-3-yl)propoxy]pyridin-3-yl}-3-ethylisoquinoline] |  | 144 nM |  |
| N[C@H](COc1cncc(-c2ccc3cnc(F)cc3c2)c1)Cc1c[nH]c2ccccc12 [6-{5-[(2S)-2-amino-3-(1H-indol-3-yl)propoxy]pyridin-3-yl}-3-fluoroisoquinoline] |  | 3.5 nM |  |
| N[C@H](COc1cncc(-c2ccc3cnc(-c4ccccc4)cc3c2)c1)Cc1c[nH]c2ccccc12 [6-{5-[(2S)-2-amino-3-(1H-indol-3-yl)propoxy]pyridin-3-yl}-3-phenylisoquinoline] |  | 305 nM |  |
| Cc1cc(-c2cncc(OC[C@@H](N)Cc3c[nH]c4ccccc34)c2)cc2ccncc12 [6-{5-[(2S)-2-amino-3-(1H-indol-3-yl)propoxy]pyridin-3-yl}-8-methylisoquinoline] |  | 995 nM |  |
| Nc1nccc2cc(-c3cncc(OC[C@@H](N)Cc4c[nH]c5ccccc45)c3)ccc12 [6-{5-[(2S)-2-amino-3-(1H-indol-3-yl)propoxy]pyridin-3-yl}isoquinolin-1-amine] | 160 nM |  |  |
| N[C@H](COc1cncc(-c2ccc3c(=O)[nH]ccc3c2)c1)Cc1c[nH]c2ccccc12 [6-{5-[(2S)-2-amino-3-(1H-indol-3-yl)propoxy]pyridin-3-yl}isoquinolin-1-ol] | 1240 nM |  |  |
| Nc1cc2cc(-c3cncc(OC[C@@H](N)Cc4c[nH]c5ccccc45)c3)ccc2cn1 [6-{5-[(2S)-2-amino-3-(1H-indol-3-yl)propoxy]pyridin-3-yl}isoquinolin-3-amine] |  | 3.4 nM |  |
| Nc1c(-c2cncc(OC[C@@H](N)Cc3c[nH]c4ccccc34)c2)ccc2cnccc12 [6-{5-[(2S)-2-amino-3-(1H-indol-3-yl)propoxy]pyridin-3-yl}isoquinolin-5-amine] |  | 15 nM |  |
| N#Cc1cc2cc(-c3cncc(OC[C@@H](N)Cc4c[nH]c5ccccc45)c3)ccc2cn1 [6-{5-[(2S)-2-amino-3-(1H-indol-3-yl)propoxy]pyridin-3-yl}isoquinoline-3-carbonitrile] |  | 640 nM |  |
| N[C@H](COc1cncc(-c2ccc3cnccc3c2)c1)Cc1c[nH]c2ccccc12 [13a (S-)] | 2 nM |  |  |
| N#C/C=C/c1c(OC[C@@H](N)Cc2c[nH]c3ccccc23)cncc1-c1ccc2cnccc2c1 [(2E)-3-{3-[(2S)-2-amino-3-(1H-indol-3-yl)propoxy]-5-(isoquinolin-6-yl)pyridin-4-yl}prop-2-enenitrile] | 697 nM |  |  |

From BindingDB's records for doi:10.1016/j.bmcl.2006.03.041 (Abbott Laboratories, 2006)
